Laboratory results as given in ChEMBL document CHEMBL1131896, “Probing the radical mechanism of galactose oxidase using an ultrafast radical probe” (Bioorg Med Chem Lett, 1999).

Legend:
[1] = biological target: Galactose oxidase (Fusarium austroamericanum); test: Binding constant against Galactose oxidase (GOase)
[2] = test system: Galactose oxidase (Fusarium austroamericanum); test: Inactivation rate constant against Galactose oxidase (GOase)

Row | Ki [1] [mM] | SMILES | other results
1 | 5.6 | OC[C@H]1C[C@@H]1c1ccccc1 [listing 1 of 2 here] | 
2 |  | OC[C@H]1C[C@@H]1c1ccccc1 [listing 2 of 2 here] | K inact [2]: 0.0026 s⁻¹
3 | 5.1 | [2H]C([2H])(O)[C@H]1C[C@@H]1c1ccccc1 (relative stereo) | 
4 |  | OC[C@H]1C[C@@H]1c1ccccc1 (relative stereo) | K inact ([2]; tested as the 2H-labelled form): 0.00082 s⁻¹
